Source: US20040047845A1, “Methods and compositions for diagnosis and treatment of cancer based on the transcription factor ets2” (MUSC Foundation For Research Development, priority 1998, published 2004)

B1: DN-ETS2: dominant negative truncated human ETS2 protein, DNA binding domain (C-terminal amino acids 334-469), expressed from plasmid pDN-ETS2 (protein, UniProt P15036 334-469, looked up, fragment)
chain: YIQERSDPVEQGKPVIPAAVLAGFTGSGPIQLWQFLLELLSDKSCQSFISWTGDGWEFKLADPDEVARRWGKRKNKPKMNYEKLSRGLRYYYDKNIIHKTSGKRYVYRFVCDLQNLLGFTPEELHAILGVQPDTED

Legend:
[1] = tested on: LNCaP human prostate cell line; test: Soft agar growth assay, LNCaP; type: cell-based; conditions: de novo expression of ETS2 in weakly tumorigenic LNCaP
Protocol: (§1) Transfection of LNCaP was performed in 35-mm wells using 2 μg of DNA and Superfact Reagent (Qiagen, Calif.). Selection for stable LNCaP transfectants was in 450 μg/ml G418. DU145 and PC3 cells were transfected using LipofectAmine ([…]/35 mm well, Life Technologies Inc., Bethesda, Md.). Stable DU145 and PC3 transfectants were expanded in the presence of 300 μg/ml G418.
(§2) Soft agar growth assays were performed in six-well plates (35-mm wells). Cells (20,000) were plated in 0.4% agar (Sigma) in RPMI 1640 supplemented with 10% FBS. An underlayer of 0.8% agar was used to prevent attachment of cells. Triplicate assays initiated with 20,000 cells were fed weekly by agar overlay and scored after 3 weeks. The soft agar assays were performed twice, independently.

DU145 cells = test: Soft agar growth assay (anchorage independent growth), DU145; type: cell-based, human; conditions: DN-ETS2 transfectants vs DU145 parental cell line, after three weeks
Protocol: as §1, §2

Molecule	ability to grow in soft agar [1]	anchorage-independent growth in soft agar (DU145 cells)
ETS2: wild type human ETS2 transcription factor, expressed de novo in LNCaP from ETS2 cDNA in sense orientation	increases its ability to grow in soft agar	
B1		do not grow well in soft agar
